Test results from US8580823B2, “Piperidine renin inhibitors” (Vitae Pharmaceuticals, Inc., priority 2006, dated 2013).

What was measured:
[1] = system: double transgenic rats engineered to express human renin and human angiotensinogen; test: In vivo blood pressure by telemetry in double transgenic rats; set-up: species or system rat; conditions: 6-week-old dTGRs, oral, 4 consecutive days, dosage of 3-10 mg/kg
Description: Double Transgenic Rats: The efficacy of the renin inhibitors can also be evaluated in vivo in double transgenic rats engineered to express human renin and human angiotensinogen (Bohlender J, Fukamizu A, Lippoldt A, Nomura T, Dietz R, Menard J, Murakami K, Luft F C, Ganten D. High human renin hypertension in transgenic rats. Hypertension 1997, 29, 428-434).
Experiments were conducted in 6-week-old double transgenic rats (dTGRs). The model has been described in detail earlier. […] The human angiotensinogen construct made up the entire human angiotensinogen gene (5 exons and 4 introns), with 1.3 kB of 5′-flanking and 2.4 kB of 3′-flanking sequences. The rats were purchased from RCC Ltd (Füllinsdorf, Switzerland). Radio telemetry transmitters were surgically implanted at 4 weeks of age. The telemetry system provided 24-h recordings of systolic, mean, diastolic arterial pressure (SAP, MAP, DAP, respectively) and heart rate (HR). Beginning on day 42, animals were transferred to telemetry cages. A 24 h telemetry reading was obtained. Rats were then dosed orally on the following 4 consecutive days (days 43-46). The rats were monitored continuously and allowed free access to standard 0.3%-sodium rat chow and drinking water.

[2] = target: T1, trypsin-activated recombinant human renin (Homo sapiens, UniProt P00797); test: In vitro renin inhibition, fluorescence of internally quenched peptide substrate; assay type: biochemical; conditions: fluorogenic peptide substrate, pH 7.0, rt
T1 sequence (P00797 67-406): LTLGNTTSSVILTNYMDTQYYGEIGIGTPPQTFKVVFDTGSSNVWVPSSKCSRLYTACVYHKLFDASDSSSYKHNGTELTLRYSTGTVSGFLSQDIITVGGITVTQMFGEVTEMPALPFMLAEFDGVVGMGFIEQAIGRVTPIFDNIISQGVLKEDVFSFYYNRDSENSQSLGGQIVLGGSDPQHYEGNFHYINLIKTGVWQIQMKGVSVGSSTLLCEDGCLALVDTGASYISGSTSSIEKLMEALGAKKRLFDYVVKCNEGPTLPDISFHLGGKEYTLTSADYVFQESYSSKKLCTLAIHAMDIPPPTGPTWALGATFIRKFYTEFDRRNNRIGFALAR
Description: The sequence of this peptide corresponds to the sequence of human angiotensinogen. The following test protocol was used. All reactions were carried out in a flat bottom white opaque microtiter plate. A 4 μL aliquot of 400 μM renin substrate (DABCYL-γ-[…]) in 192 μl, assay buffer (50 mM BES, 150 mM NaCl, 0.25 mg/mL bovine serum albumin, pH7.0) was added to 4 μl, of test compound in DMSO at various concentrations ranging from 10 μM to 1 nM final concentrations. Next, 100 μL of trypsin-activated recombinant human renin (final enzyme concentration of 0.2-2 nM) in assay buffer was added, and the solution was mixed by pipetting. The increase in fluorescence at 495 nm (excitation at 340 nm) was measured for 60-360 minutes at rt using a Perkin-Elmer Fusion microplate reader. The slope of a linear portion of the plot of fluorescence-increase as a function of time was then determined, and the rate is used for calculating percent inhibition in relation to uninhibited control. […] (Wang G. T. et al. Anal. Biochem. 1993, 210, 351; Nakamura, N. et al. J. Biochem. (Tokyo) 1991, 109, 741; Murakami, K. et al. Anal Biochem. 1981, 110, 232).

[3] = target: T2, plasma renin activity (PRA) (Homo sapiens, UniProt P00797); test: In vitro plasma renin activity (PRA) in human plasma, angiotensin I radioimmunoassay; assay type: biochemical; conditions: IC50 in pooled human plasma, 37° C., 90 min
T2 construct: pooled mixed-gender human plasma stabilized with EDTA; from tissue; host or cells: pooled mixed-gender human plasma (EDTA)
T2 sequence (P00797 67-406): T1 sequence (P00797 67-406)
Description: Incubations mixtures contained in the final volume of 250 μL 95.5 mM N,N-bis(2-hydroxyethyl)-2-aminoethanesulfonic acid, pH 7.0, 8 mM EDTA, 0.1 mM neomycin sulfate, 1 mg/mL sodium azide, 1 mM phenylmethanesulfonyl fluoride, 2% DMSO and 87.3% of pooled mixed-gender human plasma stabilized with EDTA. For plasma batches with low PRA (less than 1 ng/ml/hr) ˜2 pM of recombinant human renin was added to achieve PRA of 3-4 ng/ml/hr. The cleavage of endogenous angiotensinogen in plasma was carried out at 37° C. for 90 min and the product angiotensin I was measured by competitive radioimmunoassay using DiaSorin PRA kit.

IC50 [2] [nM]	IC50 [3] [nM]	SMILES	effect in lowering blood pressures (mean arterial blood pressure, FIG. 2) [1]
–	–	CN[C@H](CNC(=O)N1CCC[C@@H]([C@@H](OCCNC(=O)OC)c2cccc(Cl)c2)C1)C[C@H]1CCCOC1 [Compound 7, methyl 2-((R)-(3-chlorophenyl)((R)-1-((S)-2-(methylamino)-3-((R)-tetrahydro-2H-pyran-3-yl)propylcarbamoyl)piperidin-3-yl)methoxy)ethylcarbamate]	significant effect in lowering blood pressures
< 1	< 10	CN[C@H](CNC(=O)N1CCC[C@@H]([C@@H](OCCNC(=O)OC)c2cc(F)cc(Cl)c2)C1)C[C@H]1CCCOC1 [Compound 9, methyl 2-((R)-(3-chloro-5-fluorophenyl)((R)-1-((S)-2-(methylamino)-3-((R)-tetrahydro-2H-pyran-3-yl)propylcarbamoyl)piperidin-3-yl)methoxy)ethylcarbamate]	–
< 10	< 10	CN[C@H](CNC(=O)N1CCC[C@@H]([C@@H](OCCNC(=O)OC)c2cc(F)cc(F)c2)C1)C[C@H]1CCCOC1 [Compound 10, methyl 2-((R)-(3,5-difluorophenyl)((R)-1-((S)-2-(methylamino)-3-((R)-tetrahydro-2H-pyran-3-yl)propylcarbamoyl)piperidin-3-yl)methoxy)ethylcarbamate]	–
< 10	< 10	CN[C@H](CNC(=O)N1CCC[C@@H]([C@H](OCCNC(=O)OC)c2cc(Cl)ccc2C)C1)C[C@H]1CCCOC1 [Compound 11, methyl 2-((S)-(5-chloro-2-methylphenyl)((R)-1-((S)-2-(methylamino)-3-((R)-tetrahydro-2H-pyran-3-yl)propylcarbamoyl)piperidin-3-yl)methoxy)ethylcarbamate]	–
< 10	–	CCN[C@H](CNC(=O)N1CCC[C@@H]([C@@H](OCCNC(=O)OC)c2cc(Cl)ccc2C)C1)C[C@H]1CCCOC1 [Compound 12, methyl 2-((R)-(5-chloro-2-methylphenyl)((R)-1-((S)-2-(ethylamino)-3-((R)-tetrahydro-2H-pyran-3-yl)propylcarbamoyl)piperidin-3-yl)methoxy)ethylcarbamate]	–
